Test results reported in US11878009B2, “Anticancer combination of chidamide and celecoxib salts” (Great Novel Therapeutics Biotech & Medicals Corporation, priority 2019, dated 2024).

How the values were obtained:
[1] = Saturation solubility in ddH2O; assay type: physicochemical; conditions: for Saturation & Solubility: ddH2O, 25° C., 100 rpm, 90 minutes, triplicates, mean ± SD; for water solubility (in words): saturation solubility study
Method: Determination of Saturation Solubility of Chidamide-HCl, Chidamide-H2SO4, and Celecoxib-Na Salts. Sample of 5 mg of chidamide-HCl, chidamide-H2SO4, or celecoxib-Na salts was added to 5 ml volumetric flasks containing ddH2O and shook at 100 rpm in an incubator at 25° C. for 90 minutes. The resulting suspension was filtered through a 0.22 μm filter. The concentrations of chidamide-HCl, chidamide-H2SO4, and celecoxib-Na salts were determined spectrophotometrically at 256 nm, 256 nm, and 253 nm, respectively. The saturation solubility of each sample was determined in triplicates and the mean value and standard deviation were reported. Preparation of standard curves is described as below.

[2] = low solubility and high permeability; cited from earlier work

Compound	Saturation & Solubility [1]	water solubility (in words) [1]	BCS class [2]
Cc1ccc(-c2cc(C(F)(F)F)nn2-c2ccc(S(N)(=O)=O)cc2)cc1 [Celecoxib-API, 4-[5-(4-Methylphenyl)-3-(trifluoromethyl)pyrazol-1-yl]benzenesulfonamide, reference compound]	BDL	water-insoluble	class II
Nc1cc(F)ccc1NC(=O)c1ccc(CNC(=O)/C=C/c2cccnc2)cc1 [Chidamide-API, 4-(((E)-3-(pyridin-3-yl)acrylamido)methyl)-N-(2-amino-4-fluorophenyl)benzamide, reference compound]	BDL	water-insoluble	–
